Usually IC50 stands for the point on the concentration scale where inhibition reaches its midpoint.

Data on 18 compounds can be found in patent US20140005163A1 (NOVARTIS AG, priority 2010, published 2014).

Bounds are passed on as bounds.

The target of one assay is T1, mTOR (Homo sapiens, UniProt P42345).
T1 construct: purchased Invitrogen Corporation (Carlsbad/CA, USA) PV4753
Put plainly: Biochemical assay for m-TOR by TR-FRET. The note with it: 8 μM ATP, 400 nM GFP-4EBP1, 0.5 nM mTOR. The gist of the method:
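Enzyme 0.5 nM, GFP-4EBP1 400 nM, ATP 8 μM (all final); 50 mM HEPES pH 7.5, 10 mM MnCl2, 1 mM DTT; rt. Detection: Tb-α-p4EBP1 [pT46] 0.5 nM in EDTA, TR-FRET, 15 min. Reference compound on every plate, 16-point duplicate dilutions.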
In general terms: Time-resolved FRET reads energy transfer from a long-lived donor to a nearby acceptor.

The target of a further assay is T2, PI3K alpha (Homo sapiens, UniProt P42336).
T2 construct: p85(iSH2) fusion partner (see partner chain) (N); His tag (C); made in house; host or cells: baculovirus; Tn5 (Trichoplusia ni) or TiniPro insect cells
T2 sequence (P42336 with tags, fused parts or gaps limits assumed): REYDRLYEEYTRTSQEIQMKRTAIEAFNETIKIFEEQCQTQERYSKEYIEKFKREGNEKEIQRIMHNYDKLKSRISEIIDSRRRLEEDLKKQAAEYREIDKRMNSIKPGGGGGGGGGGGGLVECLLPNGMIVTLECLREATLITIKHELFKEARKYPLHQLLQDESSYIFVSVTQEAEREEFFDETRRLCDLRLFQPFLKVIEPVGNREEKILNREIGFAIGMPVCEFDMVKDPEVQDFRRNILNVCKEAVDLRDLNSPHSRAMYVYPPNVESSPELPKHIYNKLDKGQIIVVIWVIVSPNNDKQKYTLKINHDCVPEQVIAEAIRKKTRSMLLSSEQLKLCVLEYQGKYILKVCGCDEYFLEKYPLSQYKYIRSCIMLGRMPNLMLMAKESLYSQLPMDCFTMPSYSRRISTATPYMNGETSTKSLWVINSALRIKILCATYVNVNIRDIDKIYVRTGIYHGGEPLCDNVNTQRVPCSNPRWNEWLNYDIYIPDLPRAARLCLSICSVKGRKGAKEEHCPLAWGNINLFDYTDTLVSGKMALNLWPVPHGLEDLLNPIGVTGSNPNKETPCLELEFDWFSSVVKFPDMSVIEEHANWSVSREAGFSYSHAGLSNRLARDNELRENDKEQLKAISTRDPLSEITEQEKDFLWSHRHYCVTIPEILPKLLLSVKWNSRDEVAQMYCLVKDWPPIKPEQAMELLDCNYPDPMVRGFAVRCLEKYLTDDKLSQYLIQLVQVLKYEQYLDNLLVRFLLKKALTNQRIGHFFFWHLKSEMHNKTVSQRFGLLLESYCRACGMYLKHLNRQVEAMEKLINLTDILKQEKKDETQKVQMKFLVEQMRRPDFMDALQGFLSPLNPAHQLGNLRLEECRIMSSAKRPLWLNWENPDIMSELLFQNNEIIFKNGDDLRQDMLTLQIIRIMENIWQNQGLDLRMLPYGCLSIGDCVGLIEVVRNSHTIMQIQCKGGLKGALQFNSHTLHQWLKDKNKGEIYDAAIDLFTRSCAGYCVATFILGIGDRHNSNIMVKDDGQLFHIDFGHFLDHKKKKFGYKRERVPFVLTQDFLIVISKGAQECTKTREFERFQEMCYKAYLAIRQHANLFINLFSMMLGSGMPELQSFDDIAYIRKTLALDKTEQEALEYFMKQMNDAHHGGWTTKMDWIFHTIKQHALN
Put plainly: PI3K alpha kinase assay (Kinase-Glo luminescence). The assay is classed as biochemical. The gist of the method:
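Compounds are titrated at 8 concentrations and mixed with PI3Kα protein (EMV B1075, 10 nM) in phosphatidylinositol (10 μg/mL). ATP at 1 μM starts the 60-minute room-temperature reaction, which is stopped with Kinase-Glo before luminescence reading. Four-parameter curve fitting gives IC50.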
(Kinase-Glo reads ATP consumption through a luciferase reaction.)

In assay [1] the test system is S6 Ribosomal Protein phosphorylation Ser235/236 in TSC1 null mouse embryo fibroblast (MEF) cells. Put plainly: Reverse protein array assay, S6 Ribosomal Protein phosphorylation Ser235/236 in TSC1 null MEF cells. In kind it is cell-based. The note with it: 1 h, pS6 ribosomal protein Ser235/236, 60 minutes incubation, read-out: p-S6 IC50. The method, boiled down:
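TSC1−/− MEFs, seeded and held ≥20 h at 37 °C/5% CO2, were exposed to 8-step serial compound dilutions (0.02% DMSO final; DMSO vehicle control) for 60 min at 37 °C. Cells were then lysed on ice for 10 min and lysates spotted onto reverse protein array chips.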

The next assay addresses T3, PI3K delta (Homo sapiens, UniProt O00329).
T3 construct: for the full-length p110-d subunit are generated and fused by overlapping PCR; p85(iSH2) fusion partner (see partner chain) (N); His tag (C); made in house; host or cells: baculovirus; Tn5 (Trichoplusia ni) or TiniPro insect cells
The experiment in a line: PI3K delta kinase assay (Kinase-Glo luminescence). The assay is classed as biochemical. The method, boiled down:
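ATP 1 μM, PI 10 μg/mL, PI3Kδ construct BV1060 10 nM (final); 10 mM Tris pH 7.5, 3 mM MgCl2, 50 mM NaCl, 0.05% CHAPS, 1 mM DTT; 60 min RT; Kinase-Glo stop, luminescence.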

T3 sequence (O00329 with tags, fused parts or gaps limits assumed): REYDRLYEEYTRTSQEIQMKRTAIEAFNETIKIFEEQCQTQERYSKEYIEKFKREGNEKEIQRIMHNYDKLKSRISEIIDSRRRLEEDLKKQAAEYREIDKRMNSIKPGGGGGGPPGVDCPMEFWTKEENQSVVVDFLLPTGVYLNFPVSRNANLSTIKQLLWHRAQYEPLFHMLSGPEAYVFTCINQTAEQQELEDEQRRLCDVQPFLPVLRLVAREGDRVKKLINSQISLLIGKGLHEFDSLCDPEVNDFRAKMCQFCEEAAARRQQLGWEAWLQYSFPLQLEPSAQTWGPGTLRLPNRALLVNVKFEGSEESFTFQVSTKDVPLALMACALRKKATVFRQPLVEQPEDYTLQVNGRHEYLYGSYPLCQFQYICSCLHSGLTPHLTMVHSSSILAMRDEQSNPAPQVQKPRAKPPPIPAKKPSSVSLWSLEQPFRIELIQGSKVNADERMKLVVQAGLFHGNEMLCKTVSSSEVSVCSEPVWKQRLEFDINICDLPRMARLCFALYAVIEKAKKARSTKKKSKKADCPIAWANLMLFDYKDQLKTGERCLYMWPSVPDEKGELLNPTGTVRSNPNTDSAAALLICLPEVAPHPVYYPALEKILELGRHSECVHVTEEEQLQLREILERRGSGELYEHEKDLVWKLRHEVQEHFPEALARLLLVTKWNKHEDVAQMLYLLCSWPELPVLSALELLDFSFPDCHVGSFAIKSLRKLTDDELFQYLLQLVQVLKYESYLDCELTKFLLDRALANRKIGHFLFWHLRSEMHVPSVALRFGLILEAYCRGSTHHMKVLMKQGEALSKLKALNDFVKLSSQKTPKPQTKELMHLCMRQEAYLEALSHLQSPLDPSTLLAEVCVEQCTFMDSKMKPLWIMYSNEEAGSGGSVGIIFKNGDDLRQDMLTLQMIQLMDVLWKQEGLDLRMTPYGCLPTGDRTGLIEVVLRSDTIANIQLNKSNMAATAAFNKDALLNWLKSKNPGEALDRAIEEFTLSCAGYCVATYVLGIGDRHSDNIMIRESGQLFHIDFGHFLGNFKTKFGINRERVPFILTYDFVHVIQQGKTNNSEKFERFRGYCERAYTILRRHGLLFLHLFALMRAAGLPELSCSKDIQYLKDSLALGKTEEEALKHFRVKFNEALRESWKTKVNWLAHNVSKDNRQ
T1 sequence (P42345 1360-2549 limits assumed): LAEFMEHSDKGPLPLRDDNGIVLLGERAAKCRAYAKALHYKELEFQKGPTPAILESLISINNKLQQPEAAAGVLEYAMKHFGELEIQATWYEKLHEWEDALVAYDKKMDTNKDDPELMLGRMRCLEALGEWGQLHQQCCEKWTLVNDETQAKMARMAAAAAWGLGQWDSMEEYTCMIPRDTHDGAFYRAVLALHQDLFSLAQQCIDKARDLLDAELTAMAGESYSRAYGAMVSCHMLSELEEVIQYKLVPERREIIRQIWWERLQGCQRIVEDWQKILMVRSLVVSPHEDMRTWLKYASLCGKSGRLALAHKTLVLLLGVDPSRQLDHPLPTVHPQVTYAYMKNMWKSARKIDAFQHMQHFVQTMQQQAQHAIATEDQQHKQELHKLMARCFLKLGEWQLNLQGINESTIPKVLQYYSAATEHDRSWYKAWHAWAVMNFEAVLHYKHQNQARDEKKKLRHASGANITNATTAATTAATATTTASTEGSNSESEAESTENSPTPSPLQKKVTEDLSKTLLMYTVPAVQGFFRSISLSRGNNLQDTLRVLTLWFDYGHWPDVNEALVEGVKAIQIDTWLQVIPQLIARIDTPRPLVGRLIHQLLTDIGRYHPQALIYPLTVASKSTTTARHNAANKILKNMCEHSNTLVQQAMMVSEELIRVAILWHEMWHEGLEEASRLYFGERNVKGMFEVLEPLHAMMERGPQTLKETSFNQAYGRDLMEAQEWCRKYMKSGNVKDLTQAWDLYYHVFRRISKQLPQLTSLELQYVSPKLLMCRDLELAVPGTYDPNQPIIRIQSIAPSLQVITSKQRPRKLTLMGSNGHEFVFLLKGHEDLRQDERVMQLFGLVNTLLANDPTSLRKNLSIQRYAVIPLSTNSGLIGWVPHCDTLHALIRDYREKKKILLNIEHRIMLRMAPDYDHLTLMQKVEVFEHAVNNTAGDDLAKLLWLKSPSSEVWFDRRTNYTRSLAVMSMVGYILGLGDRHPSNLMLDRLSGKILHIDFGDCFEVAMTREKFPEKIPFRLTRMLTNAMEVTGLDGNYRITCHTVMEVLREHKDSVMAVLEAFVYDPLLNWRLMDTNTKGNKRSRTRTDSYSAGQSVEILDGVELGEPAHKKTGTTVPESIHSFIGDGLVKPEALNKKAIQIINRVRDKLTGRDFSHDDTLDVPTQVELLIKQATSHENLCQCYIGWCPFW

In the case of `CCn1cc(-n2c(=O)n(C)c3cnc4ccc(-c5cncc(C(C)(C)C#N)c5)cc4c32)c(C)n1` [Example 220.2, 2-{5-[1-(1-Ethyl-3-methyl-1H-pyrazol-4-yl)-3-methyl-2-oxo-2,3-dihydro-1H-imidazo[4,5-c]quinolin-8-yl]-pyridin-3-yl}-2-methyl-propionitrile], the half-maximal inhibitory concentration (IC50) on mTOR turned out to be 32 nM; at PI3K alpha, 10 nM; in assay [1], 3 nM; at PI3K delta, 7 nM.

For `Cc1nn(C)cc1-n1c(=O)n(C)c2cnc3ccc(-c4ccc(N5CCCC5)nc4)cc3c21` [Example 97, 1-(1,3-Dimethyl-1H-pyrazol-4-yl)-3-methyl-8-(6-pyrrolidin-1-yl-pyridin-3-yl)-1,3-dihydro-imidazo[4,5-c]quinolin-2-one], the IC50 on mTOR is 7 nM; on PI3K alpha it was 85 nM; in assay [1], 3 nM; at PI3K delta, 236 nM.

Turning to `CCN(CC)c1cncc(-c2ccc3ncc4c(c3c2)n(-c2cn(C)nc2C)c(=O)n4C)c1` [Example 95, 8-(5-Diethylamino-pyridin-3-yl)-1-(1,3-dimethyl-1H-pyrazol-4-yl)-3-methyl-1,3-dihydro-imidazo[4,5-c]quinolin-2-one], the IC50 at mTOR was found to be 20 nM; on PI3K alpha it was 36 nM; in assay [1] it was 1 nM; on PI3K delta, 24 nM.

In the case of `Cc1cc(-n2c(=O)n(C)c3cnc4ccc(-c5cnc(N)c(C(F)(F)F)c5)cc4c32)n(C)n1` [Example 25.6, 8-(6-Amino-5-trifluoromethyl-pyridin-3-yl)-1-(2,5-dimethyl-2H-pyrazol-3-yl)-3-methyl-1,3-dihydro-imidazo[4,5-c]quinolin-2-one], the IC50 stood at 82 nM on mTOR, 41 nM on PI3K alpha, 1 nM in assay [1] and 32 nM on PI3K delta.

For the compound `Cc1nn(C)cc1-n1c(=O)n(C)c2cnc3ccc(-c4cncc(OC5CCC5)c4)cc3c21` [Example 60.1, 8-(5-Cyclobutoxy-pyridin-3-yl)-1-(1,3-dimethyl-1H-pyrazol-4-yl)-3-methyl-1,3-dihydro-imidazo[4,5-c]quinolin-2-one], the IC50 is 5 nM on mTOR, less than 3 nM at PI3K alpha, 1 nM in assay [1] and less than 3 nM on PI3K delta.

In the case of `COc1ncc(-c2ccc3ncc4c(c3c2)n(-c2cc(C)nn2C)c(=O)n4C)c(OC)n1` [Example 234.4, 8-(2,4-Dimethoxy-pyrimidin-5-yl)-1-(2,5-dimethyl-2H-pyrazol-3-yl)-3-methyl-1,3-dihydro-imidazo[4,5-c]quinolin-2-one], the IC50 on mTOR is 187 nM; on PI3K alpha it was 64 nM; in assay [1], 10.1 nM; on PI3K delta it was 19 nM.

`CNc1ncc(-c2ccc3ncc4c(c3c2)n(-c2cn(C(C)C)nc2C)c(=O)n4C)cc1C(F)(F)F` [Example 144.2, 1-(1-Isopropyl-3-methyl-1H-pyrazol-4-yl)-3-methyl-8-(6-methylamino-5-trifluoromethyl-pyridin-3-yl)-1,3-dihydro-imidazo[4,5-c]quinolin-2-one]: the IC50 is less than 3 nM at mTOR, 8 nM on PI3K alpha, 1 nM in assay [1] and 4 nM on PI3K delta.

As to `CN(C)c1ccc(-c2ccc3ncc4c(c3c2)n(-c2cn(C)nc2Cl)c(=O)n4C)cn1` [Example 4.9, 1-(3-Chloro-1-methyl-1H-pyrazol-4-yl)-8-(6-dimethylamino-pyridin-3-yl)-3-methyl-1,3-dihydro-imidazo[4,5-c]quinolin-2-one], the IC50 at mTOR was 11 nM; at PI3K alpha, 9 nM; in assay [1] it was 2 nM; on PI3K delta it was 12 nM.

Take `CN(C)c1ncc(-c2ccc3ncc4c(c3c2)n(-c2cn(C)nc2Cl)c(=O)n4C)cn1` [Example 6.3, 1-(3-Chloro-1-methyl-1H-pyrazol-4-yl)-8-(2-dimethylamino-pyrimidin-5-yl)-3-methyl-1,3-dihydro-imidazo[4,5-c]quinolin-2-one]: the IC50 came to 5 nM on mTOR, 8 nM on PI3K alpha, 8 nM in assay [1] and 7 nM on PI3K delta.

`COc1ccc(-c2ccc3ncc4c(c3c2)n(-c2cn(C)nc2C)c(=S)n4C)cc1OC` [Example 128.2, 8-(3,4-Dimethoxy-phenyl)-1-(1,3-dimethyl-1H-pyrazol-4-yl)-3-methyl-1,3-dihydro-imidazo[4,5-c]quinoline-2-thione]: the IC50 turned out to be 12 nM on mTOR, 11 nM on PI3K alpha, 1 nM in assay [1] and 11 nM at PI3K delta.

Consider `CC(C)Oc1cncc(-c2ccc3ncc4c(c3c2)n(-c2cn(C)nc2Cl)c(=O)n4C)c1` [Example 58.2, 1-(3-Chloro-1-methyl-1H-pyrazol-4-yl)-8-(5-isopropoxy-pyridin-3-yl)-3-methyl-1,3-dihydro-imidazo[4,5-c]quinolin-2-one], for which the IC50 came out at 3 nM on mTOR, 6 nM at PI3K alpha, 4 nM in assay [1] and 4 nM at PI3K delta.

`Cc1nn(C)c(C)c1-n1c(=O)n(C)c2cnc3ccc(-c4cnc(Cl)c(N)c4)cc3c21` [Example 152.3, 8-(5-Amino-6-chloro-pyridin-3-yl)-3-methyl-1-(1,3,5-trimethyl-1H-pyrazol-4-yl)-1,3-dihydro-imidazo[4,5-c]quinolin-2-one]: the IC50 on mTOR worked out at 189 nM; at PI3K alpha it was 44 nM; in assay [1], 20 nM; on PI3K delta it was 7 nM.

Take `Cc1nn(C(C)C)cc1-n1c(=O)n(C)c2cnc3ccc(-c4cnc5c(c4)COC(=O)N5C)cc3c21` [Example 170, 1-(1-Isopropyl-3-methyl-1H-pyrazol-4-yl)-3-methyl-8-(1-methyl-2-oxo-1,4-dihydro-2H-pyrido[2,3-d][1,3]oxazin-6-yl)-1,3-dihydro-imidazo[4,5-c]quinolin-2-one]: the IC50 was 1820 nM on mTOR, 55 nM on PI3K alpha, 79 nM in assay [1] and 23 nM at PI3K delta.

In the case of `CCNC(=O)c1cc(-c2ccc3ncc4c(c3c2)n(-c2cn(C(C)C)nc2C)c(=O)n4C)cnc1N` [Example 227, 2-Amino-N-ethyl-5-[1-(1-isopropyl-3-methyl-1H-pyrazol-4-yl)-3-methyl-2-oxo-2,3-dihydro-1H-imidazo[4,5-c]quinolin-8-yl]-nicotinamide], the IC50 at mTOR amounted to 161 nM; at PI3K alpha it was 71 nM; in assay [1] it was 12 nM; at PI3K delta, 26 nM.

On to `Cc1nn(C)cc1-n1c(=O)n(C)c2cnc3ccc(-c4cccc(OC(C)C)c4)cc3c21` [Example 82, 1-(1,3-Dimethyl-1H-pyrazol-4-yl)-8-(3-isopropoxy-phenyl)-3-methyl-1,3-dihydro-imidazo[4,5-c]quinolin-2-one], for which the IC50 was determined as 27 nM at mTOR, 39 nM at PI3K alpha, 17 nM in assay [1] and 77 nM on PI3K delta.

On to `CCn1cc(-n2c(=O)n(C)c3cnc4ccc(-c5ccc(OC)c(OC)c5)nc4c32)c(C)n1` [Example 254, 8-(3,4-Dimethoxy-phenyl)-1-(1-ethyl-3-methyl-1H-pyrazol-4-yl)-3-methyl-1,3-dihydro-1,3,5,9-tetraaza-cyclopenta[a]naphthalen-2-one], for which the IC50 on mTOR was determined as 65 nM; at PI3K alpha it was 11 nM; in assay [1], 58 nM; at PI3K delta it was 26 nM.

For the compound `Cc1cc(-n2c(=O)n(C)c3cnc4ccc(-c5cnc(F)c(N)c5)cc4c32)n(C)n1` [Example 149.3, 8-(5-Amino-6-fluoro-pyridin-3-yl)-1-(2,5-dimethyl-2H-pyrazol-3-yl)-3-methyl-1,3-dihydro-imidazo[4,5-c]quinolin-2-one], the 50% inhibitory concentration (IC50) stood at 210 nM at mTOR, 63 nM at PI3K alpha, 6.94 nM in assay [1] and 38 nM at PI3K delta.

Take `CCn1cc(-n2c(=O)n(C)c3cnc4ccc(-c5cnc(N)c(Cl)c5)cc4c32)c(C)n1` [Example 148.3, 8-(6-Amino-5-chloro-pyridin-3-yl)-1-(1-ethyl-3-methyl-1H-pyrazol-4-yl)-3-methyl-1,3-dihydro-imidazo[4,5-c]quinolin-2-one]: the IC50 on mTOR came out at 12 nM; at PI3K alpha, 7 nM; in assay [1], 1 nM; at PI3K delta, 13 nM.
